Data reported in publication PMC7932521, “2-aminobenzimidazoles for leishmaniasis: From initial hit discovery to in vivo profiling” (PLoS Neglected Tropical Diseases, 2021).

tested on: not listed separately; assay: Experimental distribution coefficient (eLogD); assay type: physicochemical; details: experimental, pH 7.4
Procedure: To determine the lipophilicity of the compounds, a methodology based on the retention time of molecules in reverse stationary phase (Ascentis RP-Amide HPLC column) was used. The chromatogram was obtained using LC-MS/MS. Test compounds were prepared at 1.0 μg/mL by adding the stock solution at (1:1) mobile phases A:B + internal standard at 200nM (A: 5% methanol in 10mM ammonium acetate pH 7.4, B: 100% methanol), DMSO concentration must be lower than 2%. […] The retention time (in minutes) of each of the eight standards was plotted against their LogD values. The resulting equation for the calibration curve (y = mx + b) was used to calculate the LogD values for the test compounds.

| Compound | eLogD |
| --- | --- |
| Cn1nncc1C(=O)Nc1nc2ccc(C#N)cc2n1CC(F)(F)F [Compound 33, O=C(c1cnnn1C)Nc2nc(ccc(C#N)c3)c3n2CC(F)(F)F] | 4.0 |
| CCCn1c(NC(=O)Cc2ccc(Cl)cc2)nc2cc(C(F)(F)F)ccc21 [Compound 7, CCCn1c(ccc(C(F)(F)F)c2)c2nc1NC(Cc3ccc(Cl)cc3)=O] | 4.7 |

same assay, conditions: reverse stationary phase HPLC column (Ascentis RP-Amide), pH 7.4; S1 Data

| Compound | chromatographic logD |
| --- | --- |
| Cn1nncc1C(=O)Nc1nc2ccc(C#N)cc2n1CC(F)(F)F [Compound 33, O=C(c1cnnn1C)Nc2nc(ccc(C#N)c3)c3n2CC(F)(F)F] | 4 |
| CCCn1c(NC(=O)Cc2ccc(Cl)cc2)nc2cc(C(F)(F)F)ccc21 [Compound 7, CCCn1c(ccc(C(F)(F)F)c2)c2nc1NC(Cc3ccc(Cl)cc3)=O] | 4.69 |
| CCCn1c(NC(=O)Cc2ccc(Cl)cc2)nc2cc(F)ccc21 [Compound 4, CCCn1c(ccc(F)c2)c2nc1NC(=O)Cc3ccc(Cl)cc3] | 4.26 |
| CCCn1c(NC(=O)Cc2ccc(Cl)cc2)nc2ccc(F)cc21 [Compound 3, CCCn1c(cc(F)cc2)c2nc1NC(=O)Cc3ccc(Cl)cc3] | 4.31 |

tested on: Leishmania infantum MHOM/MA(BE)/67/ITMAP263 amastigotes; assay: L. infantum intracellular amastigote assay in PMM; assay type: cell-based; details: CC50 / L. infantum IC50
Procedure: (§1) Leishmania infantum MHOM/MA(BE)/67/ITMAP263 amastigotes were collected from the spleen of infected donor Golden hamsters. Primary peritoneal mouse macrophages (PMM) were used as host cells for in vitro assays. PMM were collected from Swiss mice after 2 days of peritoneal stimulation with a 2% suspension of potato starch and maintained in RPMI-1640 medium supplemented with 200 mM L-glutamine, antibiotics and 5% FCS at 37°C and 5% CO2. Promastigotes of L. infantum chagasi (luciferase) (MHOM/BR/2005/NLC) obtained as described in Reimão et al.,[27] were grown in M199 medium supplemented with 10% FCS, 0.25% hemin, 32 μg/ml hygromycin and 2% sterile human urine at 25°C and 5% CO2.
(§2) Stock solutions of the compounds at 20 mM were prepared in 100% DMSO. Next, the compounds were serially pre-diluted in DMSO followed by a further dilution in demineralized water to assure a final in-test DMSO concentration below 1%. The compounds were tested at 4-fold dilutions starting at 64 μM.
For the antileishmania in vitro assays, 3×10^4 PMM/well were seeded in 96-well plates. After 24h, 5×10^5 amastigotes/well were added and incubated for 2h at 37°C. Next, the compounds in 4-fold serial dilutions were added and the plates were further incubated for 5 days (37°C, 5% CO2). Parasite burdens were assessed using an inverted microscope after Giemsa staining. The results were expressed as percent reduction in parasite burdens compared to negative control wells (100% growth) and IC50 values were determined. Values represent the geometric mean of at least two independent experiments. Miltefosine was used as the positive control in all plates.

| Compound | SI: selectivity index (CC50 / IC50) |
| --- | --- |
| Cn1nncc1C(=O)Nc1nc2ccc(C#N)cc2n1CC(F)(F)F [Compound 33, O=C(c1cnnn1C)Nc2nc(ccc(C#N)c3)c3n2CC(F)(F)F] | 2 |
| CCCn1c(NC(=O)Cc2ccc(Cl)cc2)nc2cc(C(F)(F)F)ccc21 [Compound 7, CCCn1c(ccc(C(F)(F)F)c2)c2nc1NC(Cc3ccc(Cl)cc3)=O] | 8 |
| CCCn1c(NC(=O)Cc2ccc(Cl)cc2)nc2cc(F)ccc21 [Compound 4, CCCn1c(ccc(F)c2)c2nc1NC(=O)Cc3ccc(Cl)cc3] | 5 |
| CCCn1c(NC(=O)Cc2ccc(Cl)cc2)nc2ccc(F)cc21 [Compound 3, CCCn1c(cc(F)cc2)c2nc1NC(=O)Cc3ccc(Cl)cc3] | 4 |

same assay, conditions: L. infantum IC50

| Compound | potency compared to initial hit 1 |
| --- | --- |
| CCCn1c(NC(=O)Cc2ccc(Cl)cc2)nc2cc(C(F)(F)F)ccc21 [Compound 7, CCCn1c(ccc(C(F)(F)F)c2)c2nc1NC(Cc3ccc(Cl)cc3)=O] | 6 fold |

same assay, conditions: Leishmania infantum, 120 h, intracellular amastigotes in PMM, 5 days; read-out: L. infantum IC50

| Compound | IC50 |
| --- | --- |
| Cn1nncc1C(=O)Nc1nc2ccc(C#N)cc2n1CC(F)(F)F [Compound 33, O=C(c1cnnn1C)Nc2nc(ccc(C#N)c3)c3n2CC(F)(F)F] | 15 µM |
| CCCn1c(NC(=O)Cc2ccc(Cl)cc2)nc2cc(C(F)(F)F)ccc21 [Compound 7, CCCn1c(ccc(C(F)(F)F)c2)c2nc1NC(Cc3ccc(Cl)cc3)=O] | 2 µM |
| CCCn1c(NC(=O)Cc2ccc(Cl)cc2)nc2cc(F)ccc21 [Compound 4, CCCn1c(ccc(F)c2)c2nc1NC(=O)Cc3ccc(Cl)cc3] | 4.3 µM |
| CCCn1c(NC(=O)Cc2ccc(Cl)cc2)nc2ccc(F)cc21 [Compound 3, CCCn1c(cc(F)cc2)c2nc1NC(=O)Cc3ccc(Cl)cc3] | 2.9 µM |

same assay, conditions: Leishmania infantum, S1 Data; read-out: L. infantum IC50

| Compound | IC50 |
| --- | --- |
| Cn1nncc1C(=O)Nc1nc2ccc(C#N)cc2n1CC(F)(F)F [Compound 33, O=C(c1cnnn1C)Nc2nc(ccc(C#N)c3)c3n2CC(F)(F)F] | 14.8 µM |
| CCCn1c(NC(=O)Cc2ccc(Cl)cc2)nc2cc(C(F)(F)F)ccc21 [Compound 7, CCCn1c(ccc(C(F)(F)F)c2)c2nc1NC(Cc3ccc(Cl)cc3)=O] | 2.01 µM |
| CCCn1c(NC(=O)Cc2ccc(Cl)cc2)nc2cc(F)ccc21 [Compound 4, CCCn1c(ccc(F)c2)c2nc1NC(=O)Cc3ccc(Cl)cc3] | 4.35 µM |
| CCCn1c(NC(=O)Cc2ccc(Cl)cc2)nc2ccc(F)cc21 [Compound 3, CCCn1c(cc(F)cc2)c2nc1NC(=O)Cc3ccc(Cl)cc3] | 2.94 µM |

tested on: not listed separately; assay: Mouse liver microsomal stability; assay type: in vitro ADME; details: S1 Data
Procedure: The metabolic stability of the compounds was evaluated in human (pool of 200 donors, XenoTech) and mouse liver microsomes (CD1 mouse, GIBCO). Test compounds were prepared at a concentration of 0.5 μM and incubated with 0.25 mg/mL liver microsomes at pH 7.4 and 37°C. The reaction was started by addition of NADPH at […]. Samples were taken at 0, 5, 10, 15, 20 and 30 minutes. The reaction was stopped by the addition of acetonitrile:methanol (1:1) containing an internal standard (tolbutamide at 50 nM). Compounds were quantified by liquid chromatography triple quadrupole mass spectrometry (LC-MS/MS). Peak area ratios (analyte/internal standard) were converted to % remaining using the area ratio at time 0 as 100%. Half-life (t1/2 = ln(2)/k) in minutes and intrinsic clearance (Clint = k x 1000/(0.25)) in μL/min/mg were calculated using a non-linear regression from % remaining versus incubation time. From this plot, the slope (k) was determined. The analysis conditions were: analytical column (Gemini C18, […], Phenomenex), electrospray ionization source (ESI) in positive and negative mode, mobile phase A (water + 0.1% formic acid) and B (acetonitrile + 0.1% formic acid), flow rate of 0.7 mL/min.

| Compound | MLM CLint |
| --- | --- |
| CCCn1c(NC(=O)Cc2ccc(Cl)cc2)nc2cc(C(F)(F)F)ccc21 [Compound 7, CCCn1c(ccc(C(F)(F)F)c2)c2nc1NC(Cc3ccc(Cl)cc3)=O] | 283 µL/min/mg |
| CCCn1c(NC(=O)Cc2ccc(Cl)cc2)nc2cc(F)ccc21 [Compound 4, CCCn1c(ccc(F)c2)c2nc1NC(=O)Cc3ccc(Cl)cc3] | 1510 µL/min/mg |
| CCCn1c(NC(=O)Cc2ccc(Cl)cc2)nc2ccc(F)cc21 [Compound 3, CCCn1c(cc(F)cc2)c2nc1NC(=O)Cc3ccc(Cl)cc3] | 1590 µL/min/mg |

tested on: PMM (Primary Mouse Macrophages); assay: Cytotoxicity on primary peritoneal mouse macrophages; assay type: cell-based; details: Mus musculus, Macrophage, read-out: PMM IC50
Procedure: as §1, §2

| Compound | IC50 |
| --- | --- |
| Cn1nncc1C(=O)Nc1nc2ccc(C#N)cc2n1CC(F)(F)F [Compound 33, O=C(c1cnnn1C)Nc2nc(ccc(C#N)c3)c3n2CC(F)(F)F] | 32 µM |
| CCCn1c(NC(=O)Cc2ccc(Cl)cc2)nc2cc(C(F)(F)F)ccc21 [Compound 7, CCCn1c(ccc(C(F)(F)F)c2)c2nc1NC(Cc3ccc(Cl)cc3)=O] | 16 µM |
| CCCn1c(NC(=O)Cc2ccc(Cl)cc2)nc2cc(F)ccc21 [Compound 4, CCCn1c(ccc(F)c2)c2nc1NC(=O)Cc3ccc(Cl)cc3] | 20.2 µM |
| CCCn1c(NC(=O)Cc2ccc(Cl)cc2)nc2ccc(F)cc21 [Compound 3, CCCn1c(cc(F)cc2)c2nc1NC(=O)Cc3ccc(Cl)cc3] | 12.7 µM |

tested on: not listed separately; assay: MRC-5 cytotoxicity; assay type: cell-based; details: human, MRC-5 cells; S1 Data

| Compound | CC50 |
| --- | --- |
| Cn1nncc1C(=O)Nc1nc2ccc(C#N)cc2n1CC(F)(F)F [Compound 33, O=C(c1cnnn1C)Nc2nc(ccc(C#N)c3)c3n2CC(F)(F)F] | > 64 µM |
| CCCn1c(NC(=O)Cc2ccc(Cl)cc2)nc2cc(C(F)(F)F)ccc21 [Compound 7, CCCn1c(ccc(C(F)(F)F)c2)c2nc1NC(Cc3ccc(Cl)cc3)=O] | 11.2 µM |
| CCCn1c(NC(=O)Cc2ccc(Cl)cc2)nc2cc(F)ccc21 [Compound 4, CCCn1c(ccc(F)c2)c2nc1NC(=O)Cc3ccc(Cl)cc3] | > 64 µM |
| CCCn1c(NC(=O)Cc2ccc(Cl)cc2)nc2ccc(F)cc21 [Compound 3, CCCn1c(cc(F)cc2)c2nc1NC(=O)Cc3ccc(Cl)cc3] | 56.7 µM |
